Assay results from patent US9018188B2, “MicroRNA inhibitors” (Ottawa Hospital Research Institute, priority 2011, dated 2015).

Columns and labels:
Ucp1 = experiment: Induction of Ucp1 and brown adipocytes in TA muscle (RT-qPCR, immunoblot, immunofluorescence, IHC); type: in vivo, mouse
Text: To investigate miR-133 function in brown adipose determination of satellite cells in vivo, Applicant synthesized miR-133 antagomiR (miR-133 antisense oligonucleotide (ASO)) with an antisense sequence to both miR-133a and miR-133b, as well as a control “antagomiR” (control ASO) with the same chemical modifications and not antisense to any mouse gene or EST sequence (see Experimental Procedures). Applicant performed lineage tracing to distinguish effects of miR-133 ASO on satellite cells versus other cell types. Six week old Pax7-CreER; R26R-tdTomato mice were treated with tamoxifin as before (5 consecutive daily injections), then aged to 10 weeks of age prior to initiating the experiment. Control ASO versus miR-133 ASO were injected into tibialis anterior (TA) muscles 3 days following saline injection (quiescent state) or cardiotoxin injection (to induce activation). After one month, RT-qPCR was performed using RNA isolated from several tissues to evaluate the efficacy and scope of miR-133 ASO administration.
To investigate whether miR-133 ASO was inducing satellite cells to undergo brown adipose determination in vivo, Applicant performed immunofluorescence microscopy on cross-sections prepared from regenerating TA muscles treated with control- or miR-133 ASO (FIG. 4C-D) Staining for Ucp1 and basal lamina-located Laminin confirmed Ucp1 staining only within miR-133 ASO treated regenerating muscles. […] In addition, Applicant observed that these interstitial cells were immunoreactive to Perilipin A, a marker for differentiated adipocytes, and nuclear Prdm16 (FIG. 4D).
To induce brown adipocytes in vivo, 10 mg/mL Cardiotoxin solution (50 μl) was intramuscularly injected into TA muscles of 10-week old Pax7-CreER/R26R-tdTomato mice (FIG. 4) or C57BL/6 mice (FIG. 5 and FIG. 6). Alternatively, frozen injury was performed by applying liquid nitrogen cooled tweezers tips directly onto the anterior sides of TA muscles. After 3 days, 20 μg of miR-133 antagomiR or control antagomiR in saline (50 μl) was intramuscularly injected into the same injured TA muscles (on right hindlimbs). To test efficacy of miR-133 ASO in intact muscles, saline, instead of Cardiotoxin, was injected to TA muscles before miR-133 ASO administration (FIGS. 4A, 4B). miR-133 antagomiR and scramble antagomiR were designed as previously described (Krutzfeldt et al., 2005).
The following antibodies and dilutions were used: anti-MyHC antibody (MF20, Developmental Studies Hybridoma Bank), 1:20 dilution; anti-Prdm16 antibody (generated in Dr. Patrick Seale's laboratory), 1:1,000 dilution; anti-Perilipin A antibody (Vala Sciences), 1:500 dilution; anti-Ucp1 antibody (Calbiochem), 1:200 dilution; anti-Laminin B2 antibody (Upstate), 1:500 dilution.
The following antibodies and dilutions were used: anti-Prdm16 antibody (generated in Dr. Patrick Seale's laboratory), 1:5,000 dilution; anti-Perilipin A antibody (Vala Sciences), 1:5,000 dilution; anti-Ucp1 antibody (Ab10983, Abeam), 1:1,000 dilution (FIGS. 4B, 5A, 7A); anti-Ucp1 antibody (Calbiochem), 1:1,000 dilution (FIG. 8C); anti-Ucp3 antibody (Ab3477, Abeam), 1:1,000 dilution; anti-Pgc1α antibody (Abeam), 1:1,000 dilution; anti-pan myosin heavy chain (MyHC) antibody (Developmental Studies Hybridoma Bank), 1:500; anti-DsRed (tdTomato) antibody (Ablab), 1:500; anti-α-Tubulin antibody (Sigma-Aldrich), 1:10,000 dilution.
Paraffin embedded tissue sections of TA muscles, inguinal white fat depots (igWAT) and epididymal white fat depots (epiWAT) were deparaffinized in CitriSolv. After rehydration, tissue sections were boiled in 0.01M citrate buffer (1.8 mM citric acid, 8.2 mM sodium citrate, pH 6.0) for 16 minutes. Endogenous peroxidase activity was neutralized by 0.3% H2O2 in 70% methanol Anti-Ucp1 antibody (Calbiochem) was 1:200 diluted and incubated with tissues sections overnight. IHC signals were developed by Vectastain ABC kit. […]

TA muscles = experiment: [18F]-FDG PET imaging of treated TA muscles; type: in vivo, mouse; conditions: after CL316,243-stimulated sympathetic activation; normalized to contralateral TA muscles; 2 months after treatment
Text: Metabolically active BAT has been identified in adult human by [^18F]-fluorodeoxyglucose positron emission tomography ([^18F]-FDG PET), due to dramatic glucose uptake by this tissue after sympathetic activation (Nedergaard et al., 2007). To visualize active brown adipose tissue within muscle, Applicant performed [^18F]-FDG PET imaging on control- or miR-133 ASO treated mice (n=5 for 133 ASO treated mice, n=4 for control treated muscle; 2 months after treatment) after acute sympathetic activation by selective β3-adrenergic receptor agonist, CL316,243 (FIG. 5E). Applicant observed a dramatic increase of FDG uptake in miR-133 ASO treated TA muscles compared to contralateral TA muscles or TA muscles within control ASO treated mice. To rule out possible direct and indirect effects of CL316,243 on glucose/FDG uptake by skeletal muscle cells, Applicant normalized FDG activities derived from ROIs of treated TA muscles to those of contralateral TA muscles (FIG. 5F). […] Such a drastic increase was not observed without the sympathetic activation preceding anesthesia (baseline).
Mouse PET imaging was performed with an Inveon PET scanner (Siemens Preclinical Solutions, Knoxyille, Tenn., USA). Control- or miR-133 ASO treated C57BL/6 male mice fed with regular diet were anesthetized under 2% isoflurane. […]

hindlimbs = experiment: Thermographic imaging of hindlimb surface temperature; type: in vivo, mouse
Description: Mouse thermographic imaging was performed with a FUR T640 infrared camera with highest sensitivity set to ˜35° C. Control- or miR-133 ASO treated C57BL/6 male mice fed with either a regular diet or a high fat diet were shaved at both of the hindlimbs one day before the imaging. Subject mice were quickly anesthetized under ˜1% isoflurane and thermographic images were taken immediately after the mice were anesthetized (within 2 minutes). Data analysis was performed using FUR QuickReport software with measuring crosses set on the TA muscle areas on lower hindlimbs and the neck areas.

IL-1β and TNF-α = conditions: mouse, in vivo
[1] = regenerating TA muscle cross-sections

With “*mA*mUmAmGmCmUmGmGmUmUmGmAmAmGmGmGmGmAmC*mC*mA*mA*mAChl [miR-133 ASO]” the “repression of miR-133a/b and induction of Ucp1 mRNA, duration” value (Ucp1; 3 months after a single injection in regenerating muscle) was “long-lasting effects”, the “Ucp1 protein expression in treated muscles by immunoblotting” value (Ucp1; C57BL/6 mice, regular diet or high fat diet, 2 months after treatment) was “ectopically induced” and the “Ucp1 mRNA within injected regenerating muscle” value (Ucp1; cardiotoxin-injured TA muscle, one month) was “increased”. For the same substance, the “Ucp1 mRNA level in treated TA muscle” value (Ucp1; frozen injury induced muscle regeneration) was “similarly induced”, the “Ucp1 protein by immunoblotting” value (Ucp1; regenerated TA muscles, Pax7-CreER, R26R-tdTomato mice) was “specifically detected” and the “numbers of interstitial cells and ORO-stained cells between regenerating myofibers” value (Ucp1; regenerating TA muscle) was “markedly increased”. The “Prdm16pos cells per cross-section (average)” value (Ucp1; [1]) was 31.6 per cross-section, the “Ucp1pos brown adipocytes per section (average)” value (Ucp1; [1]) was 15.6 per section and the “share of Prdm16pos cells derived from satellite cells” value (Ucp1; tdTomato lineage tracing) was 76.8%. The “share of Ucp1pos brown adipocytes derived from satellite cells” value (Ucp1; tdTomato lineage tracing) was 83.3%, the “increase of glucose/FDG uptake compared to control” value (TA muscles) was 1.3 fold and the “surface temperature of treated hindlimbs higher than control hindlimbs” value (hindlimbs; mice fed with HFD) was 0.9 °C. The “surface temperature of treated hindlimbs higher than control hindlimbs” value (hindlimbs; mice fed with RD) was 0.7 °C and the “expression of IL-1β and TNF-α between control- and treated muscles” value (IL-1β and TNF-α) was “no difference”.
